Patent publication US7553816B2, “p-amidobenzylethers in drug delivery agents” (priority 2001, dated 2009)
Values joined by “and” are separate entries in the source; they are usually repeats but may differ in a detail not shown here. Equal entries are not always repeated. Where two headings read alike, the source gives them in different places.

What was measured:
[1] = target: T1, Bovine spleen cathepsin B (Bos taurus, UniProt P07688); assay type: biochemical; details: for Products released upon treatment with cathepsin B: HPLC analysis
T1 construct: Bovine spleen cathepsin B (Sigma-Aldrich); purchased Sigma-Aldrich; host or cells: bovine spleen (tissue-derived)
Protocol: Bovine spleen cathepsin B (Sigma-Aldrich), dissolved in phosphate buffered saline (pH 7.2, 1 mg/mL final concentration), was activated as previously described (Bajkowski, A. S.; Frankfater, A. Specific Spectrophotometric Assays for Cathepsin B. Anal. Biochem. 1975, 68, 119-127). […] In the case of the naphthol ether 2, a 5.0 mM solution in MeOH was diluted to a final concentration of 0.22 mM. Periodically, aliquots were taken, quenched with an equal volume of MeCN, centrifuged, and 100 μL injections analyzed by HPLC (4.6 mm×15 cm C18 column) with detection between 210 and 400 nm. […] The gradient elution was 90% to 10% A over 10 min, followed by 5 min at 10% A, and the flow rate was 1.0 mL/min. The disappearance of substrate and the appearances of released alcohol and Cbz-val-cit were recorded. Cathepsin B hydrolysis rates were calculated according to the disappearance of substrate (Table 7).

cathepsin B = details: cited from earlier work
[2] = Stability studies in PBS pH 7.2 or acetate buffer pH 5.1 at 37° C., HPLC; assay type: physicochemical; details: for Stability pH 5.1, loss of starting material: acetate buffer pH 5.1, 37° C.; for Stability pH 5.1, loss of starting material / Stability pH 7.2, loss of starting material: 7 days; for Stability pH 7.2, loss of starting material: phosphate buffered saline pH 7.2, 37° C.; for Stability at pH 5.1 (in words): pH 5.1, 37° C.; for Stability at pH 5.1 (in words) / Stability at pH 7.2 (in words): absence of added enzyme; for Stability at pH 7.2 (in words): pH 7.2, 37° C.
Protocol: The other samples were injected directly into the HPLC.

[3] = tested on: L2987 human lung adenocarcinoma cells; assay: In vitro cytotoxicity assay, [3H] thymidine incorporation; assay type: cell-based
Protocol: (§1) FIG. 1 is a graph showing the cytotoxic effects on L2987 human lung adenocarcinoma (A and D), WM266/4 (B), and IGR-39 (C) human melanoma cell lines. The cells were exposed to various concentrations of the drugs for 24 h, washed, incubated for a further 48 h, and the cytotoxic activities were quantified through the incorporation of [^3H] thymidine relative to untreated control cells.
(§2) The cell lines (L2987 human lung adenocarcinoma, WM266/4 and IGR-39 human melanomas) were exposed to the agents for 24 h, washed, and viability was determined two days later by measuring the incorporation of ^3H-thymidine compared to the untreated controls.
L2987 human lung adenocarcinoma cells were obtained as previously described (Svensson, H. P.; Vrudhula, V. M.; Emsweiler, J. E.; MacMaster, J. F.; Cosand, W. L.; Senter, P. D.; Wallace, P. M. In Vitro and In Vivo Activities of a Doxorubicin Prodrug in Combination with Monoclonal Antibody β-Lactamase Conjugates. Cancer Res. 1995, 55, 2357-2365). WM266/4 and IGR-39 human melanoma cells were obtained from ATCC (Manassas, Va.) and DSMZ (Braunschweig, Germany), respectively. L2987 and WM266/4 cells were grown in Roswell Park Memorial Institute (RPMI) medium containing 10% fetal bovine serum and 10U/mL penicillin G and 10 μg/mL streptomycin sulfate. Dulbecco's modified Eagle's medium was used in place of RPMI for the IGR-39 cells. The cells (2,500 cells in 0.1 mL medium) were plated into 96-well plates, and after 24 h at 37° C., various concentrations of the drugs in medium (50 μL) were added in triplicate. Incubation was continued for an additional 24 h, the cultures were washed, and fresh medium (0.15 mL) was added. After 48 h at 37° C., [^3H] thymidine (25 μL, 0.5 μCi/well) was added, and the cultures were frozen and harvested 4 h later. Incorporation of label was measured using a β-counter.

[4] = tested on: WM266/4 human melanoma cells; details: 24 h exposure, 48 h further, range stated for all three cell lines
Protocol: as §1, §2
(§3) L2987 human lung adenocarcinoma cells were obtained as previously described (Svensson, H. P.; Vrudhula, V. M.; Emsweiler, J. E.; MacMaster, J. F.; Cosand, W. L.; Senter, P. D.; Wallace, P. M. In Vitro and In Vivo Activities of a Doxorubicin Prodrug in Combination with Monoclonal Antibody β-Lactamase Conjugates. Cancer Res. 1995, 55, 2357-2365). WM266/4 and IGR-39 human melanoma cells were obtained from ATCC (Manassas, Va.) and DSMZ (Braunschweig, Germany), respectively. L2987 and WM266/4 cells were grown in Roswell Park Memorial Institute (RPMI) medium containing 10% fetal bovine serum and 10U/mL penicillin G and 10 μg/mL streptomycin sulfate. […] Incorporation of label was measured using a β-counter.

[5] = tested on: IGR-39 human melanoma cells; details: 24 h exposure, 48 h further, range stated for all three cell lines
Protocol: as §1, §2, §3

[6] = pooled human serum, 37° C.; for Stability Human serum, loss of starting material: 7 days
Protocol: Solutions of the substrates (0.08-0.14 mM in DMSO, and 0.22 mM in MeOH for 2) were diluted 10-20-fold in PBS, acetate buffer (25 mM, pH 5.1), or pooled human serum, and incubation was carried out at 37° C. For the serum studies, equal volumes of MeCN were added and the samples were centrifuged prior to HPLC analysis. The other samples were injected directly into the HPLC.

[7] = loss of starting material at 37° C. in pH 5.1 acetate buffer

## CBZ-VAL-CIT-PAB-OCO-(1S, 2R)-(N-ACETYL)NOREPHEDRINE [Compound 10]
[1]
  Products released upon treatment with cathepsin B: formation of 4
[1]; [7]
  Specific activity of cathepsin B: 150 nmol/ nmol/min/mg

## COc1cccc2c1C(=O)c1c(O)c3c(c(O)c1C2=O)CC(O)(C(=O)CO)CC3OC1CC(NC(=O)OCc2ccc(NC(=O)C(CCCNC(N)=O)NC(=O)C(NC(=O)OCc3ccccc3)C(C)C)cc2)C(O)C(C)O1 (stereo not shown) [Cbz-val-cit-PAB-doxorubicin carbamate]
Cathepsin B
  Release of drug upon treatment with cathepsin B: released active doxorubicin

## CBZ-VAL-CIT-PAB-O-(N-AC)-NOR [Compound 5]
[1]
  Products released upon treatment with cathepsin B: no N-acetylnorephedrine was detected
[1]; [7]
  Specific activity of cathepsin B: 145 nmol/ nmol/min/mg
[2]
  Stability pH 5.1, loss of starting material: 0% loss 7 d
  Stability pH 7.2, loss of starting material: 0% loss 7 d

## COc1cc([C@@H]2c3cc4c(cc3[C@@H](O[C@@H]3O[C@@H]5CO[C@@H](C)O[C@H]5[C@H](O)[C@H]3O)[C@H]3COC(=O)[C@H]23)OCO4)cc(OC)c1OCc1ccc(NC(=O)[C@H](CCCNC(N)=O)NC(=O)[C@@H](NC(=O)OCc2ccccc2)C(C)C)cc1 [Compound 6, CBZ-VAL-CIT-PAB-O-ETOPOSIDE]
[1]
  Products released upon treatment with cathepsin B: release of etoposide (VIIIa)
[1]; [7]
  Specific activity of cathepsin B: 160 nmol/ nmol/min/mg
[3]; L2987, 24 h exposure, 48 h further, range stated for all three cell lines
  Cytotoxic activity, times etoposide (VIIIa) more active than 6: 15-22 times
[2]
  Stability pH 5.1, loss of starting material: 0% loss, 7 days
  Stability at pH 5.1 (in words): stable
  Stability at pH 7.2 (in words): stable
  Stability pH 7.2, loss of starting material: 0% loss, 7 days
[4]
  Cytotoxic activity, times etoposide (VIIIa) more active than 6: 15-22 times
[5]
  Cytotoxic activity, times etoposide (VIIIa) more active than 6: 15-22 times

## CC(C)[C@H](NC(=O)OCc1ccccc1)C(=O)N[C@@H](CCCNC(N)=O)C(=O)Nc1ccc(COc2cccc3ccccc23)cc1 [Compound 2, CBZ-VAL-CIT-PAB-1-O-NAPHTHOL]
[1]
  Products released upon treatment with cathepsin B: the products formed were naphthol and Cbz-val-cit-COOH
[1]; pH 5.1
  Specific activity of cathepsin B: 350 nmol/min/mg and 350 nmol/ nmol/min/mg
[6]
  Stability in human serum (in words): no breakdown
  Stability Human serum, loss of starting material: 0% loss, 7 days
[2]
  Stability pH 5.1, loss of starting material: 0% loss, 7 days
  Stability at pH 5.1 (in words): no breakdown
  Stability at pH 7.2 (in words): no breakdown
  Stability pH 7.2, loss of starting material: 0% loss, 7 days

## COc1ccc(/C=C\c2cc(OC)c(OC)c(OC)c2)cc1OCc1ccc(NC(=O)[C@H](CCCNC(N)=O)NC(=O)[C@@H](NC(=O)OCc2ccccc2)C(C)C)cc1 [Compound 7, CBZ-VAL-CIT-PAB-3′-O-COMBRETASTATIN A-4]
[1]
  Products released upon treatment with cathepsin B: combretastatin A-4 (VIIIb)
[1]; [7]
  Specific activity of cathepsin B: 61 nmol/ nmol/min/mg
[6]
  Stability in human serum (in words): stable
  Stability Human serum, loss of starting material: 0% loss, 7 days
[3]; L2987 human lung adenocarcinoma cells (FIG. 1D)
  Factor less potent than combretastatin A-4 (VIIIb): 13
[2]
  Stability pH 5.1, loss of starting material: 0% loss, 7 days
  Stability at pH 5.1 (in words): stable
  Stability at pH 7.2 (in words): stable
  Stability pH 7.2, loss of starting material: 0% loss, 7 days

## COc1ccc(/C=C\c2cc(OC)c(OC)c(OC)c2)cc1OC(=O)OCc1ccc(NC(=O)[C@H](CCCNC(N)=O)NC(=O)[C@@H](NC(=O)OCc2ccccc2)C(C)C)cc1 [Compound 11, CBZ-VAL-CIT-PAB-OCO-COMBRETASTATIN A-4]
[1]
  Products released upon treatment with cathepsin B: VIIIb
[1]; [7]
  Specific activity of cathepsin B: 32 nmol/ nmol/min/mg
[3]; FIG. 1D
  Cytotoxicity compared with combretastatin A-4 (VIIIb), in words: as cytotoxic as combretastatin A-4 (VIIIb)
[2]; aqueous environments
  Stability in aqueous environments (in words): unstable
